Measurements taken from PMC7998589, “A Radiobrominated Tyrosine Kinase Inhibitor for EGFR with L858R/T790M Mutations in Lung Carcinoma” (Pharmaceuticals, 2021).

Tests used:
[1] = Determination of partition coefficient (n-octanol / 0.1 M phosphate buffer pH 7.4); format: physicochemical
Procedure: To determine the lipophilicity, the partition coefficient of [^77Br]9 was measured as described previously.

[2] = Stability assessment in PBS and murine plasma; format: in vitro ADME, mouse; conditions: 1 h, 37 °C
Procedure: The stability profile of [^77Br]9 in phosphate-buffered saline (PBS) and murine plasma is presented in Supporting Information (Figure S2). [^77Br]9 was >80% intact in PBS and murine plasma after incubation for 1 h at 37 °C. Its purity decreased to 57% after 24 h of incubation.
To confirm the stability, we measured the purity of radiotracer after incubation in PBS and mouse plasma, respectively, as described previously.

[3] = system: H1975 (L858R/T790M double mutations EGFR); experiment: Cellular uptake and blocking study, H1975; format: cell-based, human
Procedure: H1975 (1 × 10^5 cells/well), H441 (1 × 10^5 cells/well), and H3255 (2 × 10^5 cells/well) NSCLC cells were cultured in 6 well plates. Cells were incubated in medium with 10% FBS and 100 IU/mL penicillin–streptomycin at 37 °C in a humidified atmosphere with 5% CO2 for 24 h. […] The cells were dissolved by a 1.0 M NaOH aqueous solution (0.5 mL × 2). The cell lysate was transferred into a test tube. The radioactivity of ^77Br was measured by an auto well gamma counter at a 100–600 keV energy range. […] The BCA protein assay kit protocol was used to determine the protein concentration.

[4] = Biodistribution of double tracers in normal mice; format: in vivo; conditions: ddY mice
Procedure: (§1) One month later, ^125I activity was determined.

H1975 and H441 tumors = experiment: Biodistribution of double tracers in tumor-bearing mice; format: in vivo, BALB/c nu/nu mice
Procedure: Six weeks old male ddY mice and four weeks old female BALB/c nu/nu mice were purchased from Japan SLC Inc. (Hamamatsu, Japan). Tumor-bearing mice were prepared by subcutaneous injection of cells suspended in 100 μL medium to the female BALB/c nu/nu mice. H1975 cells (5 × 10^6 cells) were implanted in the right shoulder, and H441 cells (3 × 10^6 cells) were implanted in the left shoulder. The tumor reached palpable size after post-inoculation 12 and 9 days for H1975 and H441, respectively.
as §1

## C=CC(=O)Nc1cc([77Br])cc(Nc2nc(Nc3ccc(N4CCN(C(C)=O)CC4)cc3OC)ncc2C(F)(F)F)c1 [[^77Br]9]
[1]
  logP: 1.72 ± 0.21
[2]; PBS
  intact in PBS: > 80%
[2]; murine plasma
  intact in murine plasma: > 80%
[3]; 4 h of incubation
  accumulation in H1975 versus H3255 and H441: significantly higher
[3]; H1975
  reduction of uptake upon pretreatment with CO-1686: ~60%
[3]; H1975, 4 h, CO-1686 100 µM blocking
  accumulation of radioactivity with pretreatment with excess CO-1686: 56.9 % dose/mg protein
[3]; H1975, 4 h incubation
  accumulation of radioactivity (cell uptake): 136.3 % dose/mg protein
[3]; H1975, gefitinib 100 µM blocking
  effect of gefitinib on uptake: not significantly reduced
[4]; 10 min after i.v. injection
  Biodistribution, Blood: 3.57 % ID/g
  Biodistribution, Bone: 2.76 % ID/g
  Biodistribution, Brain: 0.45 % ID/g
  Biodistribution, Heart: 4.57 % ID/g
  Biodistribution, Kidney: 11.68 % ID/g
  Biodistribution, Large intestine: 2.83 % ID/g
  Biodistribution, Liver: 11.04 % ID/g
  Biodistribution, Lung: 8.72 % ID/g
  Biodistribution, Muscle: 3.18 % ID/g
  Biodistribution, Pancreas: 3.78 % ID/g
  Biodistribution, Small intestine: 25.38 % ID/g
  Biodistribution, Spleen: 5.11 % ID/g
  Biodistribution, Stomach: 6.17 % ID/organ
[4]; 1 h after i.v. injection
  Biodistribution, Blood: 3.24 % ID/g
  Biodistribution, Bone: 1.66 % ID/g
  Biodistribution, Brain: 0.95 % ID/g
  Biodistribution, Heart: 2.93 % ID/g
  Biodistribution, Kidney: 4.21 % ID/g
  Biodistribution, Large intestine: 3.18 % ID/g
  Biodistribution, Liver: 3.83 % ID/g
  Biodistribution, Lung: 4.97 % ID/g
  Biodistribution, Muscle: 2.02 % ID/g
  Biodistribution, Pancreas: 3.58 % ID/g
  Biodistribution, Small intestine: 26.49 % ID/g
  Biodistribution, Spleen: 4.83 % ID/g
  Biodistribution, Stomach: 7.00 % ID/organ
[4]; 4 h after i.v. injection
  Biodistribution, Blood: 3.19 % ID/g
  Biodistribution, Bone: 1.54 % ID/g
  Biodistribution, Brain: 0.74 % ID/g
  Biodistribution, Heart: 1.87 % ID/g
  Biodistribution, Kidney: 2.81 % ID/g
  Biodistribution, Large intestine: 47.73 % ID/g
  Biodistribution, Liver: 3.72 % ID/g
  Biodistribution, Lung: 5.08 % ID/g
  Biodistribution, Muscle: 1.13 % ID/g
  Biodistribution, Pancreas: 3.04 % ID/g
  Biodistribution, Small intestine: 5.23 % ID/g
  Biodistribution, Spleen: 2.92 % ID/g
  Biodistribution, Stomach: 6.68 % ID/organ
[4]; 24 h after i.v. injection
  Biodistribution, Blood: 1.99 % ID/g
  Biodistribution, Bone: 0.89 % ID/g
  Biodistribution, Brain: 0.42 % ID/g
  Biodistribution, Heart: 0.80 % ID/g
  Biodistribution, Kidney: 1.33 % ID/g
  Biodistribution, Large intestine: 0.98 % ID/g
  Biodistribution, Liver: 1.04 % ID/g
  Biodistribution, Lung: 1.62 % ID/g
  Biodistribution, Muscle: 0.47 % ID/g
  Biodistribution, Pancreas: 1.13 % ID/g
  Biodistribution, Small intestine: 1.00 % ID/g
  Biodistribution, Spleen: 1.14 % ID/g
  Biodistribution, Stomach: 2.21 % ID/organ
[4]; 24 h postinjection
  eliminated in feces: 35%
H1975 and H441 tumors; 1 h after i.v. injection
  Biodistribution, Blood: 5.64 % ID/g
  Biodistribution, Bone: 1.93 % ID/g
  Biodistribution, Brain: 1.49 % ID/g
  Biodistribution, H441 tumor: 3.71 % ID/g
  Biodistribution, H1975 tumor: 4.51 % ID/g
  Biodistribution, Heart: 5.36 % ID/g
  Biodistribution, Kidney: 7.75 % ID/g
  Biodistribution, Large intestine: 24.33 % ID/g
  Biodistribution, Liver: 15.89 % ID/g
  Biodistribution, Lung: 11.42 % ID/g
  Biodistribution, Muscle: 3.42 % ID/g
  Biodistribution, Pancreas: 12.95 % ID/g
  Biodistribution, Small intestine: 64.52 % ID/g
  Biodistribution, Spleen: 9.19 % ID/g
  Biodistribution, Stomach: 1.31 % ID/organ
H1975 and H441 tumors; 6 h after i.v. injection
  Biodistribution, Blood: 5.35 % ID/g
  Biodistribution, Bone: 1.95 % ID/g
  Biodistribution, Brain: 1.39 % ID/g
  Biodistribution, H441 tumor: 3.30 % ID/g
  Biodistribution, H1975 tumor: 3.48 % ID/g
  Biodistribution, Heart: 2.99 % ID/g
  Biodistribution, Kidney: 4.91 % ID/g
  Biodistribution, Large intestine: 59.40 % ID/g
  Biodistribution, Liver: 6.76 % ID/g
  Biodistribution, Lung: 6.29 % ID/g
  Biodistribution, Muscle: 1.79 % ID/g
  Biodistribution, Pancreas: 4.28 % ID/g
  Biodistribution, Small intestine: 12.46 % ID/g
  Biodistribution, Spleen: 2.04 % ID/g
  Biodistribution, Stomach: 1.27 % ID/organ
